What was measured:
Format in all cases: cell-based
[1] = tested on: human G12D mutant KRAS-positive pancreatic cancer line AsPC-1; assay: Non-anchorage-dependent cell growth inhibitory effect, spheroid 3D culture (Test Example 3); conditions: ASPC1, 144 h, AsPC-1 spheroid 3D culture, 6 days, CellTiter Glo 2.0, read-out: IC50 (non-anchorage-dependent cell growth inhibition)
Method in brief: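 AsPC-1 cells grown as spheroids in RPMI 1640 with 10% FBS at 37° C, 5% CO2, then exposed to compounds (10 μM to 0.3 nM final) for 6 days. Viability read by CellTiter Glo 2.0 luminescence. IC50 from Sigmoid-Emax regression with DMSO as 100% and cell-free medium as 0%.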

[2] = tested on: phosphorylation of ERK (Thr202/Tyr204); assay: ERK phosphorylation inhibitory effect by Cell ELISA in AsPC-1 cells (Test Example 2); conditions: Homo sapiens, ASPC1, overnight treatment, Cell ELISA, read-out: IC50 (ERK phosphorylation inhibition)
Method in brief: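 AsPC-1 cells (2.0×10^4/well, RPMI 1640 + 10% FBS) treated overnight with compounds (10 points, 10 μM to 0.3 nM final), then glyoxal-fixed and immunostained for phospho-ERK with IRDye 800CW secondary; 800-nm fluorescence read. IC50 by Sigmoid-Emax regression, normalized to DMSO (100%) and 1 μM trametinib (0%).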

KRAS G12D = target: T1, KRAS G12D (Homo sapiens, UniProt P01116, G12D); assay: KRAS degradation activity by Cell ELISA in AsPC-1 cells (Test Example 1); conditions: Cell ELISA; for Dmax: ASPC1, overnight treatment, read-out: Dmax (degradation rate at the concentration showing highest degradation); for DC50: overnight treatment, read-out: DC50 (50% degradation concentration of KRAS)
T1 construct: host or cells: AsPC-1 (human pancreatic cancer line)
Method in brief: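 AsPC-1 cells (2.0×10^4/well) treated overnight with compounds at 10 μM–0.3 nM (10 points), then fixed, permeabilised and stained for KRAS G12D (800 nm) and β-actin (700 nm) by in-cell ELISA. KRAS signal normalised to β-actin, DMSO set as 0% and actin-only staining as 100%; DC50 from Sigmoid-Emax regression up to Dmax.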

T1 sequence (P01116 1-188 isoform P01116-2 G12D): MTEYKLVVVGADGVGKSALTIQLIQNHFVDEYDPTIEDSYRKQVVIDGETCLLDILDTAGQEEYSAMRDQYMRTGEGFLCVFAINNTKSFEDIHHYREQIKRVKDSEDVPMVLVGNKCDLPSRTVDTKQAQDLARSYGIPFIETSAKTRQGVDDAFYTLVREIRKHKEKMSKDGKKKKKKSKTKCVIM

IC50 [1] [nM] | IC50 [2] [nM] | Dmax (KRAS G12D) [%] | DC50 (KRAS G12D) [nM] | SMILES
159 | 78 | 80 | 79 | Cc1c(F)cc2[nH]ncc2c1-c1c(C2CC2)cc2c(N3C[C@@H]4C[C@H]3CN4)nc(O[C@@H]3CCOC3)nc2c1OCc1ccc(C(=O)N2CCN(Cc3ccc4c(c3)n(C)c(=O)n4C3CCC(=O)NC3=O)C[C@@H]2C)cc1 (some centres unmarked) [Example 36]
64 | 41 | 87 | 30 | Cc1c(F)cc2[nH]ncc2c1-c1c(C2CC2)cc2c(N3C[C@@H]4C[C@H]3CN4)nc(OC[C@H]3CCCO3)nc2c1OCc1ccc(C(=O)N2CCN(Cc3ccc4c(c3)n(C)c(=O)n4C3CCC(=O)NC3=O)C[C@@H]2C)cc1 (some centres unmarked) [Example 37]
51 | 31 | 86 | 22 | CO[C@H](C)COc1nc(N2C[C@@H]3C[C@H]2CN3)c2cc(C3CC3)c(-c3c(C)c(F)cc4[nH]ncc34)c(OCc3ccc(C(=O)N4CCN(Cc5ccc6c(c5)n(C)c(=O)n6C5CCC(=O)NC5=O)C[C@@H]4C)cc3)c2n1 (some centres unmarked) [Example 38]
52 | 30 | 83 | 22 | CO[C@@H](C)COc1nc(O[C@@H]2CCNC2)c2cc(C3CC3)c(-c3c(C)c(F)cc4[nH]ncc34)c(OCc3ccc(C(=O)N4CCN(Cc5ccc6c(c5)n(C)c(=O)n6C5CCC(=O)NC5=O)C[C@@H]4C)cc3)c2n1 (some centres unmarked) [Example 39]
46 | 30 | 88 | 23 | Cc1c(F)cc2[nH]ncc2c1-c1c(C2CC2)cc2c(N3C[C@@H]4C[C@H]3CN4)nc(OC[C@@H]3CCCO3)nc2c1OCc1ccc(C(=O)N2CCN(Cc3ccc4c(c3)n(C)c(=O)n4C3CCC(=O)NC3=O)C[C@@H]2C)cc1 (some centres unmarked) [Example 40]

Second part, the compound before the results:

SMILES | IC50 [1] [nM] | IC50 [2] [nM] | Dmax (KRAS G12D) [%] | DC50 (KRAS G12D) [nM]
Cc1c(F)cc2[nH]ncc2c1-c1c(C2CC2)cc2c(N3C[C@@H]4C[C@H]3CN4)nc(OC3CCOCC3)nc2c1OCc1ccc(C(=O)N2CCN(Cc3ccc4c(n3)n(C)c(=O)n4C3CCC(=O)NC3=O)CC2)cc1 (some centres unmarked) [Example 11] | 142 | 59 | 84 | 58
CO[C@@H](C)COc1nc(N(C)[C@H]2CCNC2)c2cc(C3CC3)c(-c3c(C)c(F)cc4[nH]ncc34)c(OCc3ccc(C(=O)N4CCN(Cc5ccc6c(c5)n(C)c(=O)n6C5CCC(=O)NC5=O)C[C@@H]4C)cc3)c2n1 (some centres unmarked) [Example 18] | 217 | 250 | 77 | 85
Cc1c(F)cc2[nH]ncc2c1-c1c(C2CC2)cc2c(N3C[C@@H]4C[C@H]3CN4)nc(OC3CCOCC3)nc2c1OCc1ccc(C(=O)N2CCC(CNc3cccc4c3C(=O)N(C3CCC(=O)NC3=O)C4=O)CC2)cc1 (some centres unmarked) [Example 30] | 1440 | 1280 | 71 | 1480
Cc1c(F)cc2[nH]ncc2c1-c1c(C2CC2)cc2c(O[C@H]3CCNC3)cc(OC[C@@H]3CCCO3)nc2c1OCc1ccc(C(=O)N2CCN(Cc3ccc4c(c3)n(C)c(=O)n4C3CCC(=O)NC3=O)C[C@@H]2C)cc1 (some centres unmarked) [Example 31] | 147 | 158 | 71 | 115
Cc1c(F)cc2[nH]ncc2c1-c1c(C2CC2)cc2c(N3C[C@@H]4C[C@H]3CN4)nc(OC3CCOCC3)nc2c1OCc1ccc(C(=O)N2CCN(Cc3ccc4c(c3)CN(C3CCC(=O)NC3=O)C4=O)C[C@@H]2C)cc1 (stereo partly drawn) [Example 33, 3-(5-{[(3S)-4-{4-[({(7M)-6-cyclopropyl-4-[(1S,4S)-2,5-diazabicyclo[2.2.1]heptan-2-yl]-7-(6-fluoro-5-methyl-1H-indazol-4-yl)-2-[(oxan-4-yl)oxy]quinazolin-8-yl}oxy)methyl]benzoyl}-3-methylpiperazin-1-yl]methyl}-1-oxo-1,3-dihydro-2H-isoindol-2-yl)piperidine-2,6-dione] | 142 | 102 | 88 | 79
CO[C@@H](C)COc1nc(N(C)[C@@H]2CCNC2)c2cc(C3CC3)c(-c3c(C)c(F)cc4[nH]ncc34)c(OCc3ccc(C(=O)N4CCN(Cc5ccc6c(c5)n(C)c(=O)n6C5CCC(=O)NC5=O)C[C@@H]4C)cc3)c2n1 (some centres unmarked) [Example 35] | 1110 | 1510 | 48 | 3670

Source: patent US20250145631A1, “HETEROCYCLIC COMPOUND ACTING ON G12D MUTANT KRAS PROTEIN” (Astellas Pharma Inc., priority 2022, published 2025)
